Assay: in vitro
Details: human, hela cells, % viability

SMILES | viability at 28.5 h, 10 µM [%] | viability at 28.5 h, 10 µM (bulk resorufin, single well) [%]
CN(CC(=O)NC1CCCCC1)S(=O)(=O)c1ccc(F)cc1 [CBK091832] | 98.6 | –
CCNC(=O)CN(C)S(=O)(=O)c1cc(Cl)ccc1Cl [CBK091853] | 94.1 | –
Cc1ccccc1-n1c(SC(C)C)nc2sc3c(c2c1=O)CC(C)(C)OC3 [CBK091874] | 91.2 | –
O=C(O)c1ccc(NS(=O)(=O)c2cccs2)cc1O [CBK092145] | 101 | –
CS(=O)(=O)Nc1nc2ccc(S(C)(=O)=O)cc2s1 [CBK092166] | 100 | –
COc1ccc(S(=O)(=O)N2CCC(C(=O)O)CC2)cc1C(=O)O [CBK092181] | 91.4 | –
COC(=O)c1ccccc1Oc1nc(OC)cc(OC)n1 [CBK092217] | 110 | –
COc1cc(OC)nc(Oc2ccc(C(=O)O)cc2)n1 [CBK092222] | 106 | –
c1ccc(-c2cnc3c(N4CCCC4)nc(-c4cccnc4)cn23)cc1 [CBK092245] | 86.7 | –
Cc1cnc2c(N3CCCC3)nc(Cl)cn12 [CBK092250] | 104 | –
CC(C)(C)OC(=O)N1CCC2(CC1)OCc1cc(Br)ccc1O2 [CBK092251] | – | 99.4
COc1ccccc1C1NC(=O)COC12CCN(Cc1ccccc1)CC2 (stereo not shown) [CBK092265] | 109 | –
Cn1[nH]c(CO)c(Cc2c(Cl)cccc2Cl)c1=O [CBK092278T] | 95.4 | –
COc1n[nH]c(CO)c1Cc1c(Cl)cccc1Cl [CBK092283T] | 97.3 | –
CCOC(=O)c1cnc(SC)nc1NCCc1c[nH]c2cc(OC)ccc12 [CBK092317] | 87.6 | –
Cc1ccccc1C(=O)NCC(=O)NCc1csc(-c2ccccc2)n1 [CBK092334] | 91.8 | –
CCC(=O)NCc1csc(-c2ccccc2)n1 [CBK092344] | 90.1 | –
CSCC[C@H](NC(=O)OC(C)(C)C)C(=O)NCc1csc(-c2ccccc2)n1 [CBK092345] | 88 | –
Cc1nc(-c2ccccc2)sc1CNC(=O)/C=C\C(=O)Nc1ccc(F)cc1 [CBK092357] | 96.2 | –
Cc1nc(-c2ccccc2)sc1CNC(=O)C(F)(F)F [CBK092363] | 88.8 | –
Cc1nc(-c2ccccc2)sc1CNC(=O)CCC(F)(F)F [CBK092365] | 102 | –
Cc1nc(-c2ccccc2)sc1CNC(=O)/C=C/c1c[nH]cn1 [CBK092368] | 83.3 | –
Cc1nc(-c2ccccc2)sc1CNC(=O)C1CC1C (stereo not shown) [CBK092369] | 97 | –
Cc1nc(-c2ccccc2)sc1CNC(=O)Cc1ccccc1F [CBK092372] | 104 | –

SMILES | viability at 28.5 h, 10 µM [%] | viability at 28.5 h, 10 µM (bulk resorufin, single well) [%]
Cc1nc(-c2ccccc2)sc1CNC(=O)CCc1c[nH]c2ccccc12 [CBK092373] | 106 | –
CCOC(=O)CNc1nc(OC)cc(OC)n1 [CBK093392] | 86.7 | –
Cc1ccc(NC(=O)Nc2cc(S(N)(=O)=O)ccc2C)cc1 [CBK093428] | 98.5 | –
O=C1CSC2(C(=O)Nc3ccc(Br)cc32)N1c1cccc([N+](=O)[O-])c1 (stereo not shown) [CBK093451] | 94.3 | –
COc1ccc(N2C(=O)CSC23C(=O)Nc2ccc(Br)cc23)cc1 (stereo not shown) [CBK093454] | 96.6 | –
CC1SC2(C(=O)Nc3ccccc32)N(c2ccc(F)cc2)C1=O (stereo not shown) [CBK093463] | 96.8 | –
C=CCN1C(=O)C2(Nc3ccccc3C(=O)N2c2ccc(Cl)cc2)c2ccccc21 (stereo not shown) [CBK093474] | 106 | –
CCN(CC)C(=O)CN1C(=O)C2(Nc3ccccc3C(=O)N2c2ccc(C)cc2)c2ccccc21 (stereo not shown) [CBK093478] | 86 | –
COc1nc(-c2cccnc2)cn2ccnc12 [CBK093490] | 82.1 | –
Cc1ccc(S(N)(=O)=O)cc1CNC(=O)Nc1cccc(F)c1 [CBK093516] | 83.9 | –
Cn1[nH]c(COC(C)(C)C)c(Cc2c(Cl)cccc2Cl)c1=O [CBK093521] | 99.4 | –
COc1ccc(CCn2nc(C(=O)O)c3ccccc32)cc1 [CBK093525] | – | 85
COc1ccc(Cn2nc(N)c3ccccc32)cc1 [CBK093530] | 93.3 | –
CCCc1[nH]nc(O)c1C(=O)c1c(Cl)cccc1Cl [CBK093553] | 95.7 | –
CC(C)Nc1cncc(Sc2cccc(C(=O)O)c2)n1 [CBK093582] | 95.1 | –
O=C(O)c1cccc(Sc2nc3cc(Cl)c(Cl)cc3nc2N2CCCC2)c1 [CBK093588] | 118 | –
O=C(O)c1cccc(Sc2cccc(C(F)(F)F)n2)c1 [CBK093592] | 98 | –
CNC(=O)c1cnc(SC)nc1NCCc1c[nH]c2ccccc12 [CBK093597] | 104 | –
CCOC(=O)c1cnc(N2CCOCC2)nc1NCCc1c[nH]c2ccccc12 [CBK093605] | 106 | –
c1cncc(-c2cn3ccnc3c(NC3CCCCC3)n2)c1 [CBK093606] | 84.6 | –
CC(C)Nc1nc(-c2cccnc2)cn2ccnc12 [CBK093608] | 96.6 | –
NC1=NNC2=C(c3ccc(F)cc3)NNN12 [CBK093659] | 86 | –
NC1=NNC2=C(c3cccc(Cl)c3)NNN12 [CBK093661] | 87.3 | –
COc1cccc(N2N=C3NNC(N)=C3N2)c1 [CBK093665] | 83.7 | –

SMILES | viability at 28.5 h, 10 µM [%] | viability at 28.5 h, 10 µM (bulk resorufin, single well) [%]
CC(=O)N1CCC(C(=O)Nc2cccc(-c3ccc4c(c3)COC3(CCNCC3)O4)c2)CC1 [CBK093674] | – | 91.4
Cc1nnc(Sc2nc3ccccc3nc2NC(C)C)s1 [CBK093731] | 90.6 | –
c1cnc(N2CCCC2)c(Sc2nc[nH]n2)n1 [CBK093737] | 102 | –
c1nc(Sc2nccs2)cc(N2CCCC2)n1 [CBK093748] | 100 | –
Clc1cc2nc(Sc3ccccn3)c(N3CCCC3)nc2cc1Cl [CBK093754] | 100 | –
Nc1ccccc1Sc1ncccc1C(F)(F)F [CBK093758] | 86.2 | –
COc1ccc(Sc2cc(C(F)(F)F)ccn2)cc1OC [CBK093762] | 92.5 | –
Cc1csc(Sc2nccc(C(F)(F)F)n2)n1 [CBK093770] | 91.9 | –
FC(F)(F)c1ccnc(Sc2nccs2)n1 [CBK093771] | 91.9 | –
FC(F)(F)c1nc2ccccc2nc1Sc1ccncc1 [CBK093773] | 92.8 | –
Cn1ccnc1Sc1nc2ccccc2nc1C(F)(F)F [CBK093778] | 106 | –
COc1ccc(Sc2nc3ccccc3nc2C(F)(F)F)cc1OC [CBK093779] | 85 | –
Oc1cccc(Sc2nc3ccccc3nc2C(F)(F)F)c1 [CBK093780] | 109 | –
Nc1ccccc1Sc1ccc(C(F)(F)F)cn1 [CBK093782] | 91.9 | –
COCc1nnc(Sc2cc(NC(C)C)ncn2)s1 [CBK093784] | 89.3 | –
Cc1csc(Sc2nc3ccccc3nc2N2CCCC2)n1 [CBK093788] | 99.2 | –
Cn1ccnc1Sc1nc2ccccc2nc1N1CCCC1 [CBK093791] | 92.4 | –
c1ccc2nc(N3CCCC3)c(Sc3nccs3)nc2c1 [CBK093794] | 110 | –
Oc1cccc(Sc2cncc(N3CCCC3)n2)c1 [CBK093796] | 106 | –
COc1ccc(Sc2nc3ccccc3nc2N2CCCC2)cc1OC [CBK093797] | 101 | –
Nc1nnc(Sc2nccnc2N2CCCC2)s1 [CBK093804] | 103 | –
c1csc(Sc2nccnc2N2CCCC2)n1 [CBK093805] | 107 | –
c1cc(Sc2nccnc2N2CCCC2)ccn1 [CBK093807] | 92.3 | –
FC(F)(F)c1nc2ccccc2nc1Sc1nc[nH]n1 [CBK093808] | 87.6 | –

SMILES | viability at 28.5 h, 10 µM [%] | viability at 28.5 h, 10 µM (bulk resorufin, single well) [%]
N#Cc1ccc(-c2cnc(NC(=O)C(F)(F)F)c(-c3ccc(C(=O)N4CCOCC4)cc3)n2)cc1 [CBK093819] | 94.2 | –
Cc1c(Nc2ncnc3sc4c(c23)CCCC4)c(=O)n(-c2ccccc2)n1C [CBK093912] | 93.1 | –
CCc1ccc(S(=O)(=O)N2CCN(C(c3ccccc3)c3ccccc3)CC2)cc1 [CBK093948] | 98.6 | –
Cc1ccc(-c2csc(NC(=O)c3ccc(S(=O)(=O)N4CCOCC4)cc3)n2)cc1 [CBK094024] | 93.4 | –
Cc1ccc(-n2c(C)c([N+](=O)[O-])c3ccc(O)cc32)cc1 [CBK094246] | 86.2 | –
OC(CN1CCNCC1)Cn1c2ccc(Cl)cc2c2cc(Cl)ccc21 (stereo not shown) [CBK094277G] | 68.1 | –
OC[C@H]1CCCN1c1nc(Br)cn2c(-c3ccccn3)cnc12 [CBK094394] | 100 | –
COc1ccc(NS(=O)(=O)c2cc(C(=O)O)c(Cl)cc2Cl)cc1 [CBK095077] | 89.7 | –
O=C(Oc1ccc(-n2ccnc2)cc1)c1ccc(-c2ccccc2)cc1 [CBK095145] | 93.3 | –
CCOC(=O)c1cnc2ccc(OC)cc2c1Nc1ccc(OC)cc1 [CBK095337] | 93.7 | –
Clc1ccc(Cl)c(-c2nc3ccccc3o2)n1 [CBK095353] | 91.6 | –
CCOCc1c(O)ccc2c([N+](=O)[O-])c(C)n(-c3ccc(OC)cc3)c12 [CBK095589] | 87.8 | –
COc1ccc(S(=O)(=O)Nc2nc3c(s2)C(=O)CC(C)(C)C3)cc1 [CBK095611] | 94.7 | –
O=C1NN(c2ccc(F)c(Cl)c2)C(=O)/C1=C/c1ccc(-c2ccc(Cl)cc2)o1 [CBK095978] | 98.1 | –
Cc1cc2nc(-c3ccc(C(=O)O)cc3)[nH]c2cc1C [CBK096054] | 91.6 | –
CCCCC(=O)Nc1nc(-c2ccc(S(=O)(=O)N3CCOCC3)cc2)cs1 [CBK096107] | 86 | –
CCOC(=O)C1CCCCN1S(=O)(=O)c1ccc(Br)s1 (stereo not shown) [CBK096110] | 102 | –
CC(C)C(=O)Nc1cccc(-c2cn3ccsc3n2)c1 [CBK096253] | 67 | –
COc1cccc(C(=O)Nc2nc(-c3ccc(S(=O)(=O)N4CCCC4)cc3)cs2)c1 [CBK096257] | 89 | –
N#Cc1ccc(-c2nc3cc(Cl)c(F)cc3[nH]2)cc1 [CBK096290] | 90.6 | –
O=C(Nc1nc(-c2ccc(S(=O)(=O)N3CCCC3)cc2)cs1)C1COc2ccccc2O1 (stereo not shown) [CBK096353] | 101 | –
O=S(=O)(Nc1nc2c(s1)CCCC2)c1cc(Cl)ccc1Cl [CBK096578] | 98.7 | –

Source: publication PMC12040169 (PLOS Biology, 2025)
